# Tested on: SEM cells
# Test: cell viability relative to DMSO control; higher = less cytotoxic
# Settings: 48 h
# Summary of the method: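 Viability is a per-plate percentage relative to DMSO wells, with cell-free wells as background. CellTiter-Glo One luminescence was read after 48 h at 37°C on 1536-well plates (5 μl) of NOMO1 or SEM (500 cells/well) or P12-Ichikawa (1000 cells/well) leukemia cells. The cells had been adapted for at least four passages in each medium and pin-dosed with library compounds in DMSO from 47 μM to 0.79 nM in 11 threefold steps.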
# [1] = HPLM + 10% dialyzed FBS, 0.000781 µM
# [2] = HPLM + 10% dialyzed FBS, 0.00234 µM
# [3] = HPLM + 10% dialyzed FBS, 0.00702 µM
# [4] = HPLM + 10% dialyzed FBS, 0.0211 µM
# [5] = HPLM + 10% dialyzed FBS, 0.0632 µM
# [6] = HPLM + 10% dialyzed FBS, 0.19 µM
# [7] = HPLM + 10% dialyzed FBS, 0.569 µM
# [8] = HPLM + 10% dialyzed FBS, 1.71 µM
# [9] = HPLM + 10% dialyzed FBS, 5.12 µM
# [10] = HPLM + 10% dialyzed FBS, 15.4 µM
# [11] = HPLM + 10% dialyzed FBS, 46.1 µM
# [12] = RPMI 5 mM glucose + 10% dialyzed FBS, 0.000781 µM
# [13] = RPMI 5 mM glucose + 10% dialyzed FBS, 0.00234 µM
# [14] = RPMI 5 mM glucose + 10% dialyzed FBS, 0.00702 µM
# [15] = RPMI 5 mM glucose + 10% dialyzed FBS, 0.0211 µM
# [16] = RPMI 5 mM glucose + 10% dialyzed FBS, 0.0632 µM
# [17] = RPMI 5 mM glucose + 10% dialyzed FBS, 0.19 µM
# [18] = RPMI 5 mM glucose + 10% dialyzed FBS, 0.569 µM
# [19] = RPMI 5 mM glucose + 10% dialyzed FBS, 1.71 µM
# [20] = RPMI 5 mM glucose + 10% dialyzed FBS, 5.12 µM
# [21] = RPMI 5 mM glucose + 10% dialyzed FBS, 15.4 µM
# [22] = RPMI 5 mM glucose + 10% dialyzed FBS, 46.1 µM
# [23] = RPMI 5 mM glucose + 10% FBS, 0.000781 µM
# [24] = RPMI 5 mM glucose + 10% FBS, 0.00234 µM
# [25] = RPMI 5 mM glucose + 10% FBS, 0.00702 µM
# [26] = RPMI 5 mM glucose + 10% FBS, 0.0211 µM
# [27] = RPMI 5 mM glucose + 10% FBS, 0.0632 µM
# [28] = RPMI 5 mM glucose + 10% FBS, 0.19 µM
# [29] = RPMI 5 mM glucose + 10% FBS, 0.569 µM
# [30] = RPMI 5 mM glucose + 10% FBS, 1.71 µM
# [31] = RPMI 5 mM glucose + 10% FBS, 5.12 µM
# [32] = RPMI 5 mM glucose + 10% FBS, 15.4 µM
# [33] = RPMI 5 mM glucose + 10% FBS, 46.1 µM
Compound,cell viability [1] [%],cell viability [2] [%],cell viability [3] [%],cell viability [4] [%],cell viability [5] [%],cell viability [6] [%],cell viability [7] [%],cell viability [8] [%],cell viability [9] [%],cell viability [10] [%],cell viability [11] [%],cell viability [12] [%],cell viability [13] [%],cell viability [14] [%],cell viability [15] [%],cell viability [16] [%],cell viability [17] [%],cell viability [18] [%],cell viability [19] [%],cell viability [20] [%],cell viability [21] [%],cell viability [22] [%],cell viability [23] [%],cell viability [24] [%],cell viability [25] [%],cell viability [26] [%],cell viability [27] [%],cell viability [28] [%],cell viability [29] [%],cell viability [30] [%],cell viability [31] [%],cell viability [32] [%],cell viability [33] [%]
O=C(c1ccccc1)c1ccc2n1CCC2C(=O)O (stereo not drawn),117,118,104,107,114,113,112,113,81.9,67.8,77.6,124,121,129,134,125,121,118,114,90.3,59.4,72.2,,,,,,,,,,,
CCCCN(CCCC)CC(O)c1cc(Cl)cc2c1-c1ccc(Cl)cc1/C2=C/c1ccc(Cl)cc1 (stereo not drawn),93.1,95.5,93.1,108,99,107,111,105,109,104,106,88.9,94.4,89.3,89.6,78.9,94.4,94.5,97.7,101,80.5,91.3,80.9,95.7,85.6,95.7,95.1,98.4,94.6,89.9,98.6,91.2,78.9
CN1\C=N/C2=CC=C(NC3=CC(=CC=C3C)NC(=O)C4=CC(=CC=C4)C(C)(C)C#N)C=C2C1=O,101,93.6,112,117,107,101,87.4,95.5,74.8,79.4,44.1,93.6,97.9,92.4,115,101,107,101,102,70,75.8,34.9,113,122,107,114,113,105,101,96.7,87.7,84.2,31.9
COC(=O)c1ccc2c(c1)NC(=O)/C2=C(\Nc1ccc(N(C)C(=O)CN2CCN(C)CC2)cc1)c1ccccc1,76.7,79.4,60.3,30.1,48.9,50.9,46.4,38.3,37.9,30.5,23.8,82.9,83.2,60.1,30.8,49.2,44.6,38.7,35.9,30.2,29.8,25.4,96.1,92.7,84.2,31.7,68,60,57.5,43.8,41.3,36.7,24.5
O=C(O)c1cc(/N=N/c2ccc([S+](=O)([O-])Nc3ccccn3)cc2)ccc1O,84.9,108,95.3,76.3,101,103,122,106,110,90.8,98.2,91.7,102,96.2,76.8,117,91.5,97.5,106,95.5,89.4,82.1,98.8,101,108,71.9,103,114,112,97.2,89.3,116,75.1
N[C@@H]1CONC1=O,99.7,100,103,97.7,104,109,107,98.5,104,103,118,91.2,81.3,89.7,89.2,97.8,87.4,101,93.7,81.6,101,80.6,91.3,96,84.7,93.5,86,93.3,108,94.9,89.6,92.2,92.4
CCCCOCCOc1nc(-c2ccc(C(=O)O)c(F)c2)sc1C,124,126,120,125,123,124,108,111,115,109,119,105,113,108,122,121,111,116,120,97.4,104,121,101,111,113,118,104,109,107,102,102,84.5,106
CC[C@H]1OC(=O)[C@H](C)C(=O)[C@H](C)[C@@H](O[C@H]2O[C@H](C)C[C@H](N(C)C)[C@H]2O)[C@](C)(OC)C[C@@H](C)C(=O)[C@H](C)[C@H]2N(CCCCn3cnc(-c4cccnc4)c3)C(=O)O[C@]12C,99.7,118,136,120,135,123,105,109,107,105,85.2,110,124,121,117,135,126,99.3,119,104,118,86.1,95.6,110,116,117,124,114,114,97.8,119,102,93.3

# Reference: the supplement of paper PMC11451515
